Earlier results as cited in US20230405024A1 (priority 2020, published 2023).

For cannabidiol [CBD], the solubility in water is listed as “insoluble”.
